Data set [1] is described as follows: Partition coefficient (logP). It is filed as physicochemical. Particulars: octanol/water.
Data set [2] has as its target Mitogen-activated protein kinase 3 (Homo sapiens) (UniProt P27361). Briefly: In vitro percent inhibition of Mitogen-activated protein kinase 3 at 10 uM concentration of compound dissolved in 100% DMSO using 5''-[gamma-33P]-triphosphate.
For data set [3], the target named is RAF proto-oncogene serine/threonine-protein kinase (Homo sapiens) (UniProt P04049). In words: In vitro percent inhibition of RAF proto-oncogene serine/threonine-protein kinase at 10 uM concentration of compound dissolved in 100% DMSO using 5''-[gamma-33P]-triphosphate.
In data set [4] the target is Mast/stem cell growth factor receptor Kit (Homo sapiens) (UniProt P10721). Briefly: In vitro percent inhibition of v-kit Hardy-Zuckerman 4 feline sarcoma viral oncogene homolog at 10 uM concentration of compound dissolved in 100% DMSO using 5''-[gamma-33P]-triphosphate.
The target in data set [5] is Rho-associated protein kinase 2 (Homo sapiens) (UniProt O75116). Briefly: In vitro percent inhibition of Protein kinase ROCK2 at 10 uM concentration of compound dissolved in 100% DMSO using 5''-[gamma-33P]-triphosphate.
Chain of Rho-associated protein kinase 2 (Homo sapiens) (O75116 whole entry, looked up): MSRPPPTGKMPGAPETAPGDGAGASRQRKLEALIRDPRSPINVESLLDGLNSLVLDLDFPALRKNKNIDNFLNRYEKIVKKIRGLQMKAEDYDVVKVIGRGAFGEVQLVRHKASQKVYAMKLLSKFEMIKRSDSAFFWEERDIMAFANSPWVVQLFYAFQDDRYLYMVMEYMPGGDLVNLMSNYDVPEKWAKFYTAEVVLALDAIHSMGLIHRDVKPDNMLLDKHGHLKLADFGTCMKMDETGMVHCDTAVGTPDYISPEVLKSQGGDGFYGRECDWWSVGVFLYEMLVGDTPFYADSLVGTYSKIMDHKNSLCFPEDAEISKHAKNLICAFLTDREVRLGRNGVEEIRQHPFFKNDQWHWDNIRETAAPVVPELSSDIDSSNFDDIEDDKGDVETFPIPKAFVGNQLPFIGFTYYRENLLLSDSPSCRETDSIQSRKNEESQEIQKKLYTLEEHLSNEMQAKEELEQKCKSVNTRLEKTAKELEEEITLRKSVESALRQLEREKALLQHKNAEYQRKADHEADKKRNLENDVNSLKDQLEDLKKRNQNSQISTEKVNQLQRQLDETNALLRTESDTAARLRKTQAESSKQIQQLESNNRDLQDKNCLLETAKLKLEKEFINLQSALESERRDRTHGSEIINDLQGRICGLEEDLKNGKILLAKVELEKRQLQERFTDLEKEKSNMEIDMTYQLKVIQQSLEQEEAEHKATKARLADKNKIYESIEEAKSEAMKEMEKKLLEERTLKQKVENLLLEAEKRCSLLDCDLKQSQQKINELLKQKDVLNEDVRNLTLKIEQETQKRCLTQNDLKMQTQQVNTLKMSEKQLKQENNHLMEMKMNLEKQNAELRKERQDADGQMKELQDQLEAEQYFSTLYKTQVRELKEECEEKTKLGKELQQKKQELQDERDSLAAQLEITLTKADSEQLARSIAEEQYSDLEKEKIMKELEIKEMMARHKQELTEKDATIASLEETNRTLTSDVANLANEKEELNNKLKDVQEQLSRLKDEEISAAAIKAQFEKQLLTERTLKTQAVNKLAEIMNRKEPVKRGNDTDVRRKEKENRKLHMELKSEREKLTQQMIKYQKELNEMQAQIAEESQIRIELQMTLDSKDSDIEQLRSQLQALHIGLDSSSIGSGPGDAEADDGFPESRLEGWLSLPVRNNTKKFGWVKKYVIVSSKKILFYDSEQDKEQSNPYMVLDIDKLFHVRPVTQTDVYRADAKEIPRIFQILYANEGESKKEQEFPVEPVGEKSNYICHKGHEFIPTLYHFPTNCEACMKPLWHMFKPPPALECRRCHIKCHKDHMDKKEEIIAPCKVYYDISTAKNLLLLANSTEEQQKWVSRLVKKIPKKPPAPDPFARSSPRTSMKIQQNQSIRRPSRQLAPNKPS
Data set [6] can be described thus: In vitro percent inhibition of Ribosomal S6 kinase 1 at 10 uM concentration of compound dissolved in 100% DMSO using 5''-[gamma-33P]-triphosphate.
Data set [7] addresses Hepatocyte growth factor receptor (Homo sapiens) (UniProt P08581). In words: In vitro percent inhibition of Met proto-oncogene tyrosine kinase at 10 uM concentration of compound dissolved in 100% DMSO using 5''-[gamma-33P]-triphosphate.
Data set [8] concerns the target Proto-oncogene tyrosine-protein kinase Src (Homo sapiens) (UniProt P12931). Briefly: In vitro percent inhibition of c-Src tyrosine kinase at 10 uM concentration of compound dissolved in 100% DMSO using 5''-[gamma-33P]-triphosphate.
Data set [9] can be described thus: In vitro percent inhibition of Cyclin-dependent kinase 2-cyclin A at 10 uM concentration of compound dissolved in 100% DMSO using 5''-[gamma-33P]-triphosphate.
Data set [10] concerns the target Glycogen synthase kinase-3 beta (Homo sapiens) (UniProt P49841). Briefly: In vitro percent inhibition of Glycogen synthase kinase 3 beta at 10 uM concentration of compound dissolved in 100% DMSO using 5''-[gamma-33P]-triphosphate.
For data set [11], the target named is Casein kinase I isoform alpha (Homo sapiens) (UniProt P48729). Briefly: In vitro percent inhibition of Casein kinase 1 alpha at 10 uM concentration of compound dissolved in 100% DMSO using 5''-[gamma-33P]-triphosphate.
Data set [12] deals with T1, Inhibitor of nuclear factor kappa-B kinase subunit beta (Homo sapiens) (UniProt O14920).
T1 sequence (whole entry): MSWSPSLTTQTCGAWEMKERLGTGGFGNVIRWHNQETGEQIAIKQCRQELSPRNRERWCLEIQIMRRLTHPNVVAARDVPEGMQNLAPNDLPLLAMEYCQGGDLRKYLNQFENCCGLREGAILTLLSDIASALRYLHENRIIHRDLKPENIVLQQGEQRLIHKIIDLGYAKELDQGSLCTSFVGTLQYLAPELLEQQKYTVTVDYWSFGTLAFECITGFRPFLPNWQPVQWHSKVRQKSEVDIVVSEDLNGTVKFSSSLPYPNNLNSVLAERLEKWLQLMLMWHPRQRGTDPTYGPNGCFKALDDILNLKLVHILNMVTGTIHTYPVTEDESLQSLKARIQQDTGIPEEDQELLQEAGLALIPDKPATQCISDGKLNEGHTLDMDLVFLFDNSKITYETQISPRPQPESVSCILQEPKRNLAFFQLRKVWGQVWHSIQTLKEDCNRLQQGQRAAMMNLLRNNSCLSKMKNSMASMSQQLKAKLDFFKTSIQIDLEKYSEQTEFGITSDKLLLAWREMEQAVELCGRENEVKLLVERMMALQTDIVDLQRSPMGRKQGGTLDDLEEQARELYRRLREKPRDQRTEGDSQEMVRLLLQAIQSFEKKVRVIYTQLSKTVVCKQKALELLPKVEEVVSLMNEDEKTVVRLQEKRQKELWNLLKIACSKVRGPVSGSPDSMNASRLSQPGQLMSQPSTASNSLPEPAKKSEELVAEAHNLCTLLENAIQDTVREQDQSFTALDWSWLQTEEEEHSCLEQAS
Briefly: In vitro percent inhibition of I-kappa-B-kinase beta at 10 uM concentration of compound dissolved in 100% DMSO using 5''-[gamma-33P]-triphosphate.

In data set [13] the target is Ribosomal protein S6 kinase (P70S6K) (Homo sapiens) (UniProt Q9UBS0+P23443). Briefly: In vitro percent inhibition of Ribosomal protein S6 kinase at 10 uM concentration of compound dissolved in 100% DMSO using 5''-[gamma-33P]-triphosphate. It is filed as protein-complex assay.
Data set [14] has as its target Epidermal growth factor receptor (Homo sapiens) (UniProt P00533). Particulars: 10 uM.
Data set [15] addresses Platelet-derived growth factor receptor beta (Homo sapiens) (UniProt P09619). Briefly: In vitro percent inhibition of Platelet-derived growth factor receptor, beta polypeptide at 10 uM concentration of compound dissolved in 100% DMSO using 5''-[gamma-33P]-triphosphate.
The target of data set [16] is Tyrosine-protein kinase Lck (Homo sapiens) (UniProt P06239). In words: In vitro percent inhibition of p56 Lck tyrosine kinase at 10 uM concentration of compound dissolved in 100% DMSO using 5''-[gamma-33P]-triphosphate.
Data set [17] deals with Mitogen-activated protein kinase 8 (Homo sapiens) (UniProt P45983). In words: In vitro percent inhibition of c-Jun N-terminal kinase 1-alpha 1 at 10 uM concentration of compound dissolved in 100% DMSO using 5''-[gamma-33P]-triphosphate.
The target of data set [18] is T2, Tyrosine-protein kinase transforming protein Abl (Abelson murine leukemia virus) (UniProt P00521).
T2 sequence (whole entry): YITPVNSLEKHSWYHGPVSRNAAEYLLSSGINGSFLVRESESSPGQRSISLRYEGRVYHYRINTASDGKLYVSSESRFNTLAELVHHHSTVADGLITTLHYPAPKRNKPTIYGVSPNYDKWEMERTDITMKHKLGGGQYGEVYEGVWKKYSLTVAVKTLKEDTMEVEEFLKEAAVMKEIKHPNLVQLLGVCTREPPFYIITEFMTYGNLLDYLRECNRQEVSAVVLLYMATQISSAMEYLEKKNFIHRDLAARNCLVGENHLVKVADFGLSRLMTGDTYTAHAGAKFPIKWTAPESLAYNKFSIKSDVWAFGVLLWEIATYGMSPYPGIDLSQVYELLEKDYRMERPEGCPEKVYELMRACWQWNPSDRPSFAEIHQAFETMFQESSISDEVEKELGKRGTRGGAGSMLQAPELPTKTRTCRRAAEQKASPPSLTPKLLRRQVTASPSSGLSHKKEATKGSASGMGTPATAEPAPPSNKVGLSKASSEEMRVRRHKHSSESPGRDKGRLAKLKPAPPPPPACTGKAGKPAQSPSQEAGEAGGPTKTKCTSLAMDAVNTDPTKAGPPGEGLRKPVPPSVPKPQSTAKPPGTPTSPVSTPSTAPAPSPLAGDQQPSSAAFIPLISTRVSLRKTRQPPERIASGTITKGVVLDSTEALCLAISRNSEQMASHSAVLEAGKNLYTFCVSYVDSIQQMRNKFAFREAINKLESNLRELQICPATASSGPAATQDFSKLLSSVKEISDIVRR
In words: In vitro percent inhibition of v-Abl tyrosine kinase at 10 uM concentration of compound dissolved in 100% DMSO using 5''-[gamma-33P]-triphosphate.

Data set [19] has as its target RAC-alpha serine/threonine-protein kinase (Homo sapiens) (UniProt P31749). Briefly: In vitro percent inhibition of Protein kinase B, alpha at 10 uM concentration of compound dissolved in 100% DMSO using 5''-[gamma-33P]-triphosphate.

Chain of Epidermal growth factor receptor (Homo sapiens) (P00533 whole entry): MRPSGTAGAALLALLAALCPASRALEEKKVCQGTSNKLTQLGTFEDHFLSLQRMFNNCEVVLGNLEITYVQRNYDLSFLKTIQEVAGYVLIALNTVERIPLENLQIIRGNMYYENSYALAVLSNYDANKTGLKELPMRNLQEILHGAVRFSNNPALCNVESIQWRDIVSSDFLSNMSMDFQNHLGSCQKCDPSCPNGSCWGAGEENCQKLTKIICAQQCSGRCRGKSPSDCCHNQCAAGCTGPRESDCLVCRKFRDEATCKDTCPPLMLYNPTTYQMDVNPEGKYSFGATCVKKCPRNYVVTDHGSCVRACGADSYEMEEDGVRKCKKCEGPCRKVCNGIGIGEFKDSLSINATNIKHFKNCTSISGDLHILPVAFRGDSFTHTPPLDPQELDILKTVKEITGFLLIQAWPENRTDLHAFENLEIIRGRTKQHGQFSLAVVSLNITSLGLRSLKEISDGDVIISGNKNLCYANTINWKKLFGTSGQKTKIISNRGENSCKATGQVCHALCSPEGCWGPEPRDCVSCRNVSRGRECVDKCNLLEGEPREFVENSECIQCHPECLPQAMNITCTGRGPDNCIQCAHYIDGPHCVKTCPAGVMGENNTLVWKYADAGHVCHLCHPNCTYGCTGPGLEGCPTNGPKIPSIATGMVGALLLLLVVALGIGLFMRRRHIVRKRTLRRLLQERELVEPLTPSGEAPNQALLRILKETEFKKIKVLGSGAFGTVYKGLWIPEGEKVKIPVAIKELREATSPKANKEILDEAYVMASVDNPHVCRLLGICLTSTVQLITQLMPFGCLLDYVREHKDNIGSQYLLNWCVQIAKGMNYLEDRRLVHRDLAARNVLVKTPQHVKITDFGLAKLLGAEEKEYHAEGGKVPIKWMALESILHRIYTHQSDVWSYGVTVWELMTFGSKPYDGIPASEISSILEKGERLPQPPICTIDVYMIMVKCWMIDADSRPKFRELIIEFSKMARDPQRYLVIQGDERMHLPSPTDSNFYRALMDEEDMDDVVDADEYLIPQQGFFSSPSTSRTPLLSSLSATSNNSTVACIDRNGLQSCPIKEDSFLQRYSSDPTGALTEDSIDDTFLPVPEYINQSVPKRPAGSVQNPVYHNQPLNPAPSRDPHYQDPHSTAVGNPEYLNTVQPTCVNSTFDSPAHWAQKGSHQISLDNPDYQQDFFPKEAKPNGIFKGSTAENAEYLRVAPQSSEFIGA
Chain of Proto-oncogene tyrosine-protein kinase Src (Homo sapiens) (P12931 2-536 limits assumed): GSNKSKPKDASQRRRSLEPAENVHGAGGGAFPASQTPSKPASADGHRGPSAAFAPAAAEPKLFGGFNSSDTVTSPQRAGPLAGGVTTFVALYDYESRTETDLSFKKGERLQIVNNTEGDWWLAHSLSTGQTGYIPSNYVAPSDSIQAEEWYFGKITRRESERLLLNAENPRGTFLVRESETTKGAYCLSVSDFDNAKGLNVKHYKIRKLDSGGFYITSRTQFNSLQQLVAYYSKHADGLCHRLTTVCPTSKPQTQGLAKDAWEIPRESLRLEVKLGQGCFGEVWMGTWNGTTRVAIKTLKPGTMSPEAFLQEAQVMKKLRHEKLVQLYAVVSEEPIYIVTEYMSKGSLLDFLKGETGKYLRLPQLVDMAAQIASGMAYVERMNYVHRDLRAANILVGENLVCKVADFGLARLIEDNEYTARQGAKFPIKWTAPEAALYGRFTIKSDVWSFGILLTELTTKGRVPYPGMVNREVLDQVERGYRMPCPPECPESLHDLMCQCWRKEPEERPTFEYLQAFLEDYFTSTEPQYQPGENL
Chain of Glycogen synthase kinase-3 beta (Homo sapiens) (P49841 whole entry, looked up, canonical isoform): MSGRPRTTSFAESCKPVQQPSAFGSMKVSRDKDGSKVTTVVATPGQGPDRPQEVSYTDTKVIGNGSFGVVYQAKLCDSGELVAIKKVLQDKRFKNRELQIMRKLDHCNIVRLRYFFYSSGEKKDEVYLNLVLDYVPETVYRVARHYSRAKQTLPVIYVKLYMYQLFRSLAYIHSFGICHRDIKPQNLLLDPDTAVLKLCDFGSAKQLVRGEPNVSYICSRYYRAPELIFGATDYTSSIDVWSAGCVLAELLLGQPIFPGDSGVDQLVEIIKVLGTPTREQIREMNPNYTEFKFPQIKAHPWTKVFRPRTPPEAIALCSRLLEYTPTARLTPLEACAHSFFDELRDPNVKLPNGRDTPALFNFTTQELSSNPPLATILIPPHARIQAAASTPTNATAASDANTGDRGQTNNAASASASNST
Chain of Hepatocyte growth factor receptor (Homo sapiens) (P08581 whole entry): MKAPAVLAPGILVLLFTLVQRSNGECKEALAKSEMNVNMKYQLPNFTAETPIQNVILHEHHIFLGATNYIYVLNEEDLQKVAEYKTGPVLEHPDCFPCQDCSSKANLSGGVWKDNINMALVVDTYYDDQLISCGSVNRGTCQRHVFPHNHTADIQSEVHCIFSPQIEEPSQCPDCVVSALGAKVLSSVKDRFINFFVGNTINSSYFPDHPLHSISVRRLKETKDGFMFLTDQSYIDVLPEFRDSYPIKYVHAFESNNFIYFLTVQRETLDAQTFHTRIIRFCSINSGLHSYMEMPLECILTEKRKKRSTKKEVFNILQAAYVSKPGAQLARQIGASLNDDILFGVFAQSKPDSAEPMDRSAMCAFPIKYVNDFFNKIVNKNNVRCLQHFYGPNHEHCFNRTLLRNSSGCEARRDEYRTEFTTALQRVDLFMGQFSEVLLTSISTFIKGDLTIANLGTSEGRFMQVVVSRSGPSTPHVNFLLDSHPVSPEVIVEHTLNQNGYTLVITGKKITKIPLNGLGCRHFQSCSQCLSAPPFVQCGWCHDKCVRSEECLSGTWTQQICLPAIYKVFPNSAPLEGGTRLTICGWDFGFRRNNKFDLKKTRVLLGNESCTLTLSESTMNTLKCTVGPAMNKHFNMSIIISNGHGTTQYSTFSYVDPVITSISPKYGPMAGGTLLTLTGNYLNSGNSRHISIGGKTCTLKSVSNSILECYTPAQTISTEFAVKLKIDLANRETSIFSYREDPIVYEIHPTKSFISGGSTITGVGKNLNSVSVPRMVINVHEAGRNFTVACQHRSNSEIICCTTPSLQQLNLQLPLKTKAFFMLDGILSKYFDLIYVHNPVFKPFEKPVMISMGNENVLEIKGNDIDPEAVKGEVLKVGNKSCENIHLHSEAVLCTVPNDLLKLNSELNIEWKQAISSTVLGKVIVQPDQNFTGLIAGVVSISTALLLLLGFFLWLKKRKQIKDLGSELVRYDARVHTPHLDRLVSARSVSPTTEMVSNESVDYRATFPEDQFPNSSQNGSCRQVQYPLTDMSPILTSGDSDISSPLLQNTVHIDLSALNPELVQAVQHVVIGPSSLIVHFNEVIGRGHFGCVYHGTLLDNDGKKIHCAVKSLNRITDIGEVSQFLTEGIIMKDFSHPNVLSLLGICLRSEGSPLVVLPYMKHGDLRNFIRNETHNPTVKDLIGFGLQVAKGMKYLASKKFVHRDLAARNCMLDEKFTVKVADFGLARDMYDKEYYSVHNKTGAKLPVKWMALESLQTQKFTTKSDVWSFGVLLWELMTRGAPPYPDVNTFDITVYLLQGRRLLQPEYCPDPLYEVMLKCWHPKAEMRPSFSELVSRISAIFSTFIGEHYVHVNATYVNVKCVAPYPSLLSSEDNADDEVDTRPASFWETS

By logP is commonly meant a log measure of how a compound divides between an organic and an aqueous phase. A high value points to higher lipophilicity. In turn, `CCCCC(=O)c1ccccc1` [VALEROPHENONE] registered a logP in data set [1] of 3.26.
On the same count and under the same terms, the value for `CCC(=O)c1ccccc1` [PROPIOPHENONE] was 2.2; that for `Cn1c(=O)c2[nH]c(-c3ccccc3)nc2n(C)c1=O` [8-PHENYL THEOPHYLLINE] was 2.05; that for `c1ccc2[nH]cnc2c1` [BENZIMIDAZOLE] was 1.55.
A word on the inhibition: it is the change of the read-out against control, counted positive when it falls. Turning to `O=C(O)CCCc1ccc(-c2nc3cc4ccccc4cc3nc2-c2ccc(CCCC(=O)O)s2)s1`, the inhibition in data set [2] worked out at 6%; in [3], 12%; in [4] it was 33%; in data set [5], 0%; in data set [6] it was 20%; in [7], 7%. For the same molecule, the inhibition in [8] was determined as 35%; in [9], 7%; in data set [10] it was 13%; in [11] it was 24%; in [12], 43%; in data set [13], 18%. The figures for the inhibition in data set [14], in [15] and in data set [16] were 32%, 37% and 9%, respectively. In data set [1], this molecule had a logP of 4.77.
Turning to `COC(=O)CCc1ccc(-c2nc3cc4ccccc4cc3nc2-c2ccc(CCC(=O)OC)s2)s1`, the inhibition in [2] amounted to 13%; in data set [3] it was 18%; in data set [4], 12%; in data set [5], 5%; in data set [6], 31%; in [7], 39%. For the same molecule, the inhibition in data set [8] is 19%; in data set [9], 12%; in data set [10], 7%; in data set [11], 14%; in data set [17] it was -10%; in data set [12], 31%. Besides, the inhibition in data set [13] was 11%; in data set [18], -8%; in data set [19] it was 14%; in [14] it was 32%; in data set [15], 13%; in data set [16], 5%. Also, the logP in data set [1] is 5.
`COc1cc2c(c(OC)c1OC)-c1ccc(OC)c(=O)cc1[C@@H](NC(C)=O)CC2` [COLCHICINE] showed a logP in [1] of 0.92.
For `O=C(O)Cc1csc(-c2nc3cc4ccccc4cc3nc2-c2cc(CC(=O)O)cs2)c1`, the inhibition came out at 54% in data set [2]; 40% in data set [3]; 17% in data set [4]; 18% in data set [5]; 27% in data set [6]; 21% in data set [7]. The inhibition in data set [8] is 29%; in data set [9], -5%; in data set [10], 22%; in data set [11], 18%; in data set [12], 37%; in [13], 10%. The inhibition in data set [18] was -7%; in data set [19] it was 17%; in data set [14] it was 54%; in data set [15], 22%; in data set [16], 8%. The same molecule had a logP in data set [1] of 4.11.
In the case of `O=C(O)C1COc2cc3nc(-c4cccs4)c(-c4cccs4)nc3cc2O1` (stereo unspecified), the inhibition is 39% in data set [2]; 12% in data set [3]; 4% in data set [4]; -1% in data set [5]; 14% in data set [6]; -2% in data set [7]. The inhibition was 19% in data set [8]; 10% in data set [9]; 33% in [10]; 15% in data set [11]; 14% in data set [12]; -1% in data set [13]. In addition, the inhibition was -6% in data set [18]; 4% in [19]; 39% in [14]; 5% in data set [15]; -2% in data set [16]. The molecule further came in with a logP in data set [1] of 4.7.
Regarding `O=C(O)c1ccc(-c2nc3cc4ccccc4cc3nc2-c2ccc(C(=O)O)s2)s1`, the inhibition in data set [2] is 49%; in data set [3], 16%; in data set [4], 12%; in data set [5] it was 19%; in data set [6], 31%; in [7], -4%. Further, the inhibition in [8] is 20%; in data set [9], 3%; in [10] it was 51%; in data set [11], 7%; in data set [12], 29%; in data set [13] it was 14%. For the same molecule, the figures for the inhibition in data set [19], in data set [14] and in [15] were 12%, 49% and 23%, respectively. Moreover, the logP in data set [1] was determined as 5.03.
Take `Cn1c(=O)c2[nH]cnc2n(C)c1=O` [THEOPHYLLINE]: the lipophilicity (logP) in data set [1] is -0.05.
As for `CCCC(=O)c1ccccc1` [BUTYROPHENONE], in [1], the lipophilicity (logP) was determined as 2.73.
In [1], `COC(=O)Cc1ccc(-c2nc3cc4ccccc4cc3nc2-c2ccc(CC(=O)OC)s2)s1` yielded a logP of 4.95.
Molecule `c1ccc(-c2nnn[nH]2)cc1` gave a logP in data set [1] of 1.42.

The values above are taken from ChEMBL document CHEMBL1140238, “Synthesis of selective SRPK-1 inhibitors: novel tricyclic quinoxaline derivatives” (Bioorg Med Chem Lett, 2005).
